Experimental data published in patent publication US20250326748A1, “COMPOUNDS AND METHODS FOR MODULATING SPLICING” (REMIX THERAPEUTICS INC., priority 2022, published 2025).

System: HiBiT-tagged MYB protein
Experiment: HiBiT protein abundance assay, MYB (K562 HiBiT knock-in)
Assay type: cell-based, human
Conditions: HiBiT knock-in cells, 24 hours
Procedure, shortened: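 Endogenously HiBiT-tagged K562 knock-in lines treated 24 h at 37 °C with 10-point 3-fold dilutions (top 10 μM final, DMSO ≤0.25%) in IMDM+1% FBS. Lytic Nano-Glo luminescence normalized to DMSO and unmodified K562 controls; four-parameter fit gives 50%-abundance concentration (IC50).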

Compared with `Cn1cc2cc(-c3ccc4cc(N5CC[C@@H](NC(C)(C)C)C5)cnc4n3)c(O)cc2n1` [Compound 199], `Cn1cc2cc(-c3ccc4cc(N5CC[C@H](NC(C)(C)C)C5)cnc4n3)c(O)cc2n1` (single isomer, unassigned) [Compound 200] is higher in IC50: under 100 nM for the first, 100 to 1000 nM for the second. The first is the more potent here.

`Cc1c(O)c(-c2ccc3nc(N4CCC(N(C)C)CC4)cnc3n2)cc2cn(C)nc12` [Compound 198] and `Cc1c(O)c(-c2ccc3nc(N4CCNCC4)cnc3n2)cc2cn(C)nc12` [Compound 197, 2,7-dimethyl-5-[2-(piperazin-1-yl)pyrido[2,3-b]pyrazin-6-yl]indazol-6-ol] fall in the same range of IC50: 100 to 1000 nM for the first, 100 to 1000 nM for the second.

First: COc1nc(-c2cc3cn(C)nc3c(F)c2O)nc2ncc(N3CCC(N(C)C)CC3)cc12 [Compound 219, 5-{6-[4-(dimethylamino)piperidin-1-yl]-4-methoxypyrido[2,3-d]pyrimidin-2-yl}-7-fluoro-2-methylindazol-6-ol]
Second: COc1nc(-c2cc3cn(C)nc3c(C)c2O)nc2ncc(N3CCC(N(C)C)CC3)cc12 [Compound 163, 5-{6-[4-(dimethylamino)piperidin-1-yl]-4-methoxypyrido[2,3-d]pyrimidin-2-yl}-2,7-dimethylindazol-6-ol]
The IC50 of the first is lower: under 100 nM for the first, 100 to 1000 nM for the second. The first is the more potent here.

`Cc1c(O)c(-c2cc(Cl)c3cc(N4CCNCC4)cnc3n2)cc2cn(C)nc12` [Compound 154, 5-[4-chloro-6-(piperazin-1-yl)-1,8-naphthyridin-2-yl]-2,7-dimethylindazol-6-ol] and `Cn1cc2cc(-c3cc(Cl)c4cc(N5CCNCC5)cnc4n3)c(O)c(F)c2n1` [Compound 155, 5-[4-chloro-6-(piperazin-1-yl)-1,8-naphthyridin-2-yl]-7-fluoro-2-methylindazol-6-ol] cannot be ordered by IC50: under 100 nM for the first, under 100 nM for the second.

First: CNC1CCN(c2cnc3nc(-c4cc5cn(C)nc5c(C)c4O)nc(OC)c3c2)C1 (centres unmarked) [Compound 161, 5-{4-methoxy-6-[3-(methylamino)pyrrolidin-1-yl]pyrido[2,3-d]pyrimidin-2-yl}-2,7-dimethylindazol-6-ol]
Second: CNC1CCN(c2cnc3nc(-c4cc5cn(C)nc5c(C)c4O)cc(OC)c3n2)C1 (centres unmarked) [Compound 194, 5-{8-methoxy-2-[3-(methylamino)360pyrrolidine-1-yl]pyrido[2,3-b]pyrazin-6-yl}-2,7-dimethylindazol-6-ol]
The IC50 of the first is lower: under 100 nM for the first, 1000 to 10000 nM for the second. The first is the more potent here.

`CN(C)[C@@H]1CCN(c2cnc3nc(-c4cc5cn(C)nc5c(F)c4O)cc(Cl)c3c2)C1` [Compound 220] and `CN(C)[C@H]1CCN(c2cnc3nc(-c4cc5cn(C)nc5c(F)c4O)cc(Cl)c3c2)C1` [Compound 221] cannot be ordered by IC50: under 100 nM for the first, under 100 nM for the second.

Compared with `Cn1cc2cc(-c3cnc4nc(N5CCC(NC6CC6)C5)ccc4n3)c(O)c(F)c2n1` (centres unmarked) [Compound 178, 5-[6-[3-(cyclopropylamino)pyrrolidin-1-yl]pyrido[2,3-b]pyrazin-2-yl]-7-fluoro-2-methyl-indazol-6-ol], `Cn1cc2cc(-c3cnc4cc(N5CC[C@@H](NC6CC6)C5)ccc4n3)c(O)c(F)c2n1` [Compound 177, 5-[6-[(3R)-3-(cyclopropylamino)318quinoxaline-1-yl]318quinoxaline-2-yl]-7-fluoro-2-methyl-indazol-6-ol] is lower in IC50: 100 to 1000 nM for the first, under 100 nM for the second.

`CNC1CCN(c2cnc3nc(-c4cc5cn(C)nc5cc4O)cc(Cl)c3c2)C1` (centres unmarked) [Compound 213, 5-{4-chloro-6-[3-(methylamino)370pyrrolidine-1-yl]-1,8-naphthyridin-2-yl}-2-methylindazol-6-ol] and `CN[C@@H]1CCN(c2cnc3nc(-c4cc5cn(C)nc5c(F)c4O)cc(Cl)c3c2)C1` [Compound 271] cannot be ordered by IC50: under 100 nM for the first, under 100 nM for the second.

`C[C@@H]1CN(c2cnc3nc(-c4cc5cn(C)nc5cc4O)cc(Cl)c3c2)C[C@H](C)N1` [Compound 208] and `C[C@H]1CN(c2cnc3nc(-c4cc5cn(C)nc5cc4O)cc(Cl)c3c2)C[C@H](C)N1` [Compound 242] cannot be ordered by IC50: under 100 nM for the first, under 100 nM for the second.

`CNC1CCN(c2cnc3nc(-c4cc(F)c5nc(C)cn5c4)ccc3c2)C1` (centres unmarked) [Compound 100, 1-(7-{8-fluoro-2-methylimidazo[1,2-a]pyridin-6-yl}-1,8-naphthyridin-3-yl)-N-methylpyrrolidin-3-amine] and `CNC1CCN(c2cnc3nc(-c4cc5cn(C)nc5c(C)c4O)cc(Cl)c3n2)C1` (centres unmarked) [Compound 193, 5-{8-chloro-2-[3-(methylamino)355pyrrolidine-1-yl]pyrido[2,3-b]pyrazin-6-yl}-2,7-dimethylindazol-6-ol] cannot be ordered by IC50: under 100 nM for the first, under 100 nM for the second.

`CC1CN(c2cnc3nc(-c4cc(F)c5nn(C)cc5c4)cc(Cl)c3c2)CCN1` (centres unmarked) [Compound 203, 4-chloro-2-(7-fluoro-2-methyl-2H-indazol-5-yl)-6-(3-methylpiperazin-1-yl)-1,8-naphthyridine 2,2,2-trifluoroacetate] and `Cn1cc2cc(-c3cc(Cl)c4cc(N5CCNC(C6CC6)C5)cnc4n3)cc(F)c2n1` (centres unmarked) [Compound 209, 4-chloro-6-(3-cyclopropylpiperazin-1-yl)-2-(7-fluoro-2-methylindazol-5-yl)-1,8-naphthyridine] fall in the same range of IC50: 100 to 1000 nM for the first, 100 to 1000 nM for the second.

`Cn1cc2cc(-c3cc(Cl)c4cc(N5CCNCC5)cnc4n3)cc(F)c2n1` [Compound 103] and `Cn1cc2cc(-c3cc(Cl)c4cc(N5CCNCC5)cnc4n3)c(O)cc2n1` [Compound 102, 5-[4-chloro-6-(piperazin-1-yl)-1,8-naphthyridin-2-yl]-2-methylindazol-6-ol] cannot be ordered by IC50: under 100 nM for the first, under 100 nM for the second.

First: Cc1c(O)c(-c2cc(-c3nnc[nH]3)c3cc(N4C[C@@H](C)N[C@@H](C)C4)cnc3n2)cc2cn(C)nc12 [Compound 261, 5-{6-[(3R,5S)-3,5-dimethylpiperazin-1-yl]-4-(4H-1,2,4-triazol-3-yl)-1,8-naphthyridin-2-yl}-2,7-dimethylindazol-6-ol]
Second: Cc1c(O)c(-c2cc(Cl)c3cc(N4C[C@@H](C)N[C@@H](C)C4)cnc3n2)cc2cn(C)nc12 [Compound 207, 5-{4-chloro-6-[(3R,5S)-3,5-dimethylpiperazin-1-yl]-1,8-naphthyridin-2-yl}-2,7-dimethylindazol-6-ol]
The IC50 of the first is higher: over 10000 nM for the first, under 100 nM for the second.

Compared with `C[C@@H]1CN(c2cnc3nc(-c4cc(F)c5nn(C)cc5c4)cc(Cl)c3c2)C[C@@H](C)N1` [Compound 251], `C[C@H]1CN(c2cnc3nc(-c4cc(F)c5nn(C)cc5c4)cc(Cl)c3c2)C[C@H](C)N1` [Compound 250] is lower in IC50: 100 to 1000 nM for the first, under 100 nM for the second. The second is the more potent here.

First: Cc1c(O)c(-c2cc(-c3ccccn3)c3cc(N4C[C@@H](C)N[C@@H](C)C4)cnc3n2)cc2cn(C)nc12 [Compound 217, 5-{6-[(3R,5S)-3,5-dimethylpiperazin-1-yl]-4-(pyridin-2-yl)-1,8-naphthyridin-2-yl}-2,7-dimethylindazol-6-ol]
Second: Cc1c(O)c(-c2ncc3cc(N4CC[C@@H](N)C4)cnc3n2)cc2cn(C)nc12 [Compound 159, (R)-5-(6-(3-aminopyrrolidin-1-yl)pyrido[2,3-d]pyrimidin-2-yl)-2,7-dimethyl-2H-indazol-6-ol 2,2,2-trifluoroacetate]
The IC50 of the first is higher: 1000 to 10000 nM for the first, under 100 nM for the second. The second is the more potent here.

`Cc1nc2c(C)c(O)c(-c3cnc4cc(N5CCC(NC6CC6)C5)ccc4n3)cc2o1` (centres unmarked) [Compound 182, 6-[6-[3-(cyclopropylamino)pyrrolidin-1-yl]quinoxalin-2-yl]-2,4-dimethyl-1,3-benzoxazol-5-ol] and `Cn1cc2cc(-c3cnc4cc(N5CC[C@H](NC6CC6)C5)ccc4n3)c(O)c(F)c2n1` [Compound 176, 5-[6-[(3S)-3-(cyclopropylamino)318quinoxaline-1-yl]318quinoxaline-2-yl]-7-fluoro-2-methyl-indazol-6-ol] cannot be ordered by IC50: under 100 nM for the first, under 100 nM for the second.
